The assay concerns human conjunctival tissue mast cells. Briefly: Inhibition of anti-human IgE-induced histamine release from human conjunctival tissue mast cells (HCTMC). The class given is cell-based. The protocol:
Methods detailing preparation of monodispersed HCTMC and mediator release studies with these cells have been described (U.S. Pat. No. 5,360,720 and Miller et al, Ocular Immunology and Inflammation, 4(1):39-49 (1996)). Briefly, human conjunctival tissue mast cells were isolated from post-mortem tissue donors obtained within 8 hours of death by various eye banks and transported in Dexsol® corneal preservation medium, or equivalent. Tissues were enzymatically digested by repeated exposure (30 min. at 37° C.) to collagenase and hyaluronidase (2× with 200 U each/gram tissue, then 2-4× with 2000 U each/gram tissue) in Tyrode's buffer containing 0.1% gelatin. (Tyrode's buffer (in mM): 137 NaCl, 2.7 KCl, 0.35 NaH2PO4, 1.8 CaCl2, 0.98 MgCl2, 11.9 NaHCO3, and 5.5 glucose). Each digestion mixture was filtered over Nitex® cloth (100 μm mesh, Tetko, Briarcliff Manor, N.Y.) and washed with an equal volume of buffer. Filtrates were centrifuged at 825×g (7 min). Pellets were resuspended in buffer then combined for enrichment over a […] Percoll® cushion. The enriched pellet was washed, resuspended in supplemented RPMI 1640 medium and incubated at 37° C. to equilibrate.
Cells were harvested from the culture plate and counted for viability (trypan blue exclusion) and mast cell number (toluidine blue O). Mast cells (5000/tube; 1 mL final volume) were challenged (37° C.) for 15 min with goat-anti-human IgE (10 μg/mL) following treatment (15 minutes; 37° C.) with test drug or Tyrode's buffer. Total and non-specific release controls were exposed to 0.1% Triton X-100 and goat IgG (10 μg/mL), respectively. The reaction was terminated by centrifugation (500×g, 4° C., 10 min). Supernatants were stored at −20° C. until analyzed for histamine content by RIA (Beckman Coulter, Chicago, Ill.).
All test drugs were made to solution immediately prior to use. Each was dissolved in DMSO at 10 mM or greater concentration and then diluted in Tyrode's buffer containing 0.1% gelatin over the concentration for evaluation.
Inhibition of histamine release was determined by direct comparison of with anti-IgE challenged mast cells using Dunnett's t-test (Dunnett, “A multiple comparison procedure for comparing treatments with a control”, J. Amer. Stat. Assoc. (1955), 50:1096-1121).

[1] abbreviates: Homo sapiens, Mast cell, bracketed value = mean of the two determinations, anti-IgE challenged human conjunctival mast cells, read-out: IC50(nM), inhibition of histamine release, value in square brackets.
The mark [2] stands for this setting: individual determinations, mast cells 5000/tube, 15 min drug treatment at 37° C., then 15 min challenge with goat-anti-human IgE (10 μg/mL), histamine by RIA, read-out: IC50(nM), inhibition of histamine release.

Where “and” joins values, the source holds several entries; their conditions need not be identical. Identical values can stand only once. Like-named read-outs stand apart in the source and are kept apart here.

As for `C=C(C)C(=O)Nc1ccccc1SSc1ccccc1NC(=O)C(=C)C` [Compound 3], the IC50 (usually the concentration at which inhibition is half-maximal) is, setting by setting: under setting [1], 491 nM; under setting [2], 690 nM and 292 nM.
Take `CC(=O)Nc1ccccc1SSc1ccccc1NC(C)=O` [Compound 2]: the IC50 is 481 nM under setting [1]; 656 nM and 306 nM under setting [2].
`C=CCC(=O)Nc1ccccc1SSc1ccccc1NC(=O)CC=C` [Compound 1]: the IC50 is 56 nM under setting [1]; 85 nM and 27 nM under setting [2].
With `CCOC(=O)Nc1ccccc1SSc1ccccc1NC(=O)OCC` [Compound 5], under setting [1], the IC50 amounted to 1190 nM.
In the case of `CC(C)(C)C(=O)Nc1ccccc1SSc1ccccc1NC(=O)C(C)(C)C` [Compound 6], the IC50 (Homo sapiens, Mast cell, 0.25 h, individual determinations, mast cells 5000/tube, 15 min drug treatment at 37° C., then 15 min challenge with goat-anti-human IgE (10 μg/mL), histamine by RIA, read-out: IC50(nM), inhibition of histamine release) was determined as 1700 nM.
For the compound `CC(O)CC(=O)Nc1ccccc1SSc1ccccc1NC(=O)CC(C)O` (stereo not drawn) [Compound 4], the IC50 under setting [2] was 3180 nM and < 1000 nM.

The record behind these values is patent US6452052B1, “Aniline disulfide derivatives for treating allergic diseases” (Alcon Universal Ltd., priority 2000, dated 2002).
